Laboratory results taken from publication PMC8213057, “Targeting ALK2: An Open Science Approach to Developing Therapeutics for the Treatment of Diffuse Intrinsic Pontine Glioma” (Journal of Medicinal Chemistry, 2020).
Several values for one entry are separate records, joined by “and”; a condition that tells them apart may be missing. Identical values can stand only once.

Experiments:
PAK6 = PAK6 (Homo sapiens, UniProt Q9NQU5); conditions: 1 μM; Run 1, Run 2
MKK4 = molecular target: T1, MKK4 (Homo sapiens, UniProt P45985); test: biochemical; conditions: read-out: % enzyme activity, 1 μM; Run 1, Run 2
T1 sequence (P45985 1-399): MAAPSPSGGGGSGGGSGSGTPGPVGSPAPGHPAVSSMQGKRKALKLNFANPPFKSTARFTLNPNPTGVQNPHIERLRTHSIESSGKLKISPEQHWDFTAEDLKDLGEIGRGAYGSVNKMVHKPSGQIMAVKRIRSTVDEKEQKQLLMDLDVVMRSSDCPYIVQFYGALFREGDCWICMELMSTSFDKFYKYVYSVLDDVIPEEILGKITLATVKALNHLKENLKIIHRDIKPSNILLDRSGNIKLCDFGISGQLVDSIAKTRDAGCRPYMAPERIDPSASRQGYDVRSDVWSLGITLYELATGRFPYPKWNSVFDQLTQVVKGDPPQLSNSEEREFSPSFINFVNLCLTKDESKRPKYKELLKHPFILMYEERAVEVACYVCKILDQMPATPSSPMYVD

MUSK = molecular target: T2, MUSK (Homo sapiens, UniProt O15146); conditions: 1 μM; Run 1, Run 2
T2 sequence (O15146 24-869): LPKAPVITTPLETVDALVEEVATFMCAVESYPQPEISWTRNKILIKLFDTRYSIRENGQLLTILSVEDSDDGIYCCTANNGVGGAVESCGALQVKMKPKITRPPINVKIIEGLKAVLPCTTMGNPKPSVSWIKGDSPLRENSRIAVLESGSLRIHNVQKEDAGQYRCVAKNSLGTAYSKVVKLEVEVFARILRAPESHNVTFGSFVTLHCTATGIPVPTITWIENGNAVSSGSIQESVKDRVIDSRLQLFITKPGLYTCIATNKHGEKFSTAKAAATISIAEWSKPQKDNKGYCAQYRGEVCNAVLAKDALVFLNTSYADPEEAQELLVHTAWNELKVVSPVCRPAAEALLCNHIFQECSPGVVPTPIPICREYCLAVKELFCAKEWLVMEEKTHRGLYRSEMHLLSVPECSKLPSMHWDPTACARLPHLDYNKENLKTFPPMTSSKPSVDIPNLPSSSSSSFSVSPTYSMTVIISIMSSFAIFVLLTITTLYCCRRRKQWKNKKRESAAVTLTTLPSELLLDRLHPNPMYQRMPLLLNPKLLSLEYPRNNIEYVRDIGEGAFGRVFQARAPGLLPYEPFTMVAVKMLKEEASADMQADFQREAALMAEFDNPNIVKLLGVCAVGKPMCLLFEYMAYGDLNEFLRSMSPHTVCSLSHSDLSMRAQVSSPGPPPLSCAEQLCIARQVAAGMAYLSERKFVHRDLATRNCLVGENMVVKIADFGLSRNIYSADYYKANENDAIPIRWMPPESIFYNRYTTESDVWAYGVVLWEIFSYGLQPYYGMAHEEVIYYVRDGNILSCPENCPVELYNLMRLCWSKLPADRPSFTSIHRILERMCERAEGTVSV

MST2/STK3 = molecular target: T3, MST2/STK3 (Homo sapiens, UniProt Q13188); conditions: 1 μM; Run 1, Run 2
T3 sequence (Q13188 1-491): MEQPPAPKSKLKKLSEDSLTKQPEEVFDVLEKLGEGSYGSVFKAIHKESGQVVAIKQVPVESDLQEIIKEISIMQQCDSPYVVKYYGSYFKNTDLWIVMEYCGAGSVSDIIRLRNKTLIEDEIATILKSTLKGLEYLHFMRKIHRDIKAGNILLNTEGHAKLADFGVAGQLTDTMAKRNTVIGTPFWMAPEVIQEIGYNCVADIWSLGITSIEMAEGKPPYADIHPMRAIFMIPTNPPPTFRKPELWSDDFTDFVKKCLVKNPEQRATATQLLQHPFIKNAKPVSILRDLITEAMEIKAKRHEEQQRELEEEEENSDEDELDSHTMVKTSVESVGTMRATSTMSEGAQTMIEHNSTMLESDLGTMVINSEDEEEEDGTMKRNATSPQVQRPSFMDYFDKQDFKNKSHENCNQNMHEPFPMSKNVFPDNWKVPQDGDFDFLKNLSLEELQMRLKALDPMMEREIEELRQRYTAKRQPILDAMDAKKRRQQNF

TLK1 = molecular target: T4, TLK1 (Homo sapiens, UniProt Q9UKI8); test: biochemical; conditions: read-out: % enzyme activity, 1 μM; Run 1, Run 2
T4 sequence (Q9UKI8 1-766): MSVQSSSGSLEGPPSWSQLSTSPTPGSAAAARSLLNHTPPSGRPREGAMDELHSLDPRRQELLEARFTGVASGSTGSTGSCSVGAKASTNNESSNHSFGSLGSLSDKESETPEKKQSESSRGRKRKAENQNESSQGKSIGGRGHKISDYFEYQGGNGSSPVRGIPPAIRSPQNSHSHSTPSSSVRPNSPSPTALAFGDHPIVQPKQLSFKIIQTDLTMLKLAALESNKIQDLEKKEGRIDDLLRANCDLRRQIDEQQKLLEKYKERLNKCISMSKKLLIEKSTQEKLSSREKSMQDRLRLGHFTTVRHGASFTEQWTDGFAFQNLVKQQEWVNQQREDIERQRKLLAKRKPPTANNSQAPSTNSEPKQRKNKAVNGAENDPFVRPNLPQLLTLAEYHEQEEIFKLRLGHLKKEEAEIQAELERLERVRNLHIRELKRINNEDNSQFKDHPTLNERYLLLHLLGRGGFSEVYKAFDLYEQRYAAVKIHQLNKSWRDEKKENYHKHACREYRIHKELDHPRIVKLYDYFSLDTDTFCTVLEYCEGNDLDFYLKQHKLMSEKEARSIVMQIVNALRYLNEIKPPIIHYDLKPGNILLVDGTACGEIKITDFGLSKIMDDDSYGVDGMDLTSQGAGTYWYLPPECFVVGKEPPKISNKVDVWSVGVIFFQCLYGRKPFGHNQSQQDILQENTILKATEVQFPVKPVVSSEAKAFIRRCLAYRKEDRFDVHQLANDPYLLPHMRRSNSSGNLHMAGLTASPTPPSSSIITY

Sequence of PAK6 (Q9NQU5 whole entry): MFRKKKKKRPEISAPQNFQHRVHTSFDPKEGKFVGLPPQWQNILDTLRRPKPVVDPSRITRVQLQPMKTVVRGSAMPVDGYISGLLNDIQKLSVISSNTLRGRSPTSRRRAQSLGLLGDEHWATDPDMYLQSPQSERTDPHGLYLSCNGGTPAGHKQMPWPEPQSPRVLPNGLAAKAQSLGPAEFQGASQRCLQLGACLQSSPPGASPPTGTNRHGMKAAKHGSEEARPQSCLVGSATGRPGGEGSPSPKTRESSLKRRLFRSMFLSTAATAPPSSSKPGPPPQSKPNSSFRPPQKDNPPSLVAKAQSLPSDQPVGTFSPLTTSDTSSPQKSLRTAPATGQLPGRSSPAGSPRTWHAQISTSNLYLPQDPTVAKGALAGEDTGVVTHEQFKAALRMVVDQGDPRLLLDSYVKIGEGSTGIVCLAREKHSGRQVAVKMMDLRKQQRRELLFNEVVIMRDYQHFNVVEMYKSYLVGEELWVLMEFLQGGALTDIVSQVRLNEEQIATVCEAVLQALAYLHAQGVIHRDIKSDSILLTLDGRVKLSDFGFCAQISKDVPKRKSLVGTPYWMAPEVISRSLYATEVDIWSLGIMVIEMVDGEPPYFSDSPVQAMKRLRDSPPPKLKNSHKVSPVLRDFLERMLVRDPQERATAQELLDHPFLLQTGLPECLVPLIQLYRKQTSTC

SMILES	% enzyme activity (PAK6)	remaining activity at 1 µM (MKK4)	% enzyme activity (MUSK)	% enzyme activity (MST2/STK3)	remaining activity at 1 µM (TLK1)	CYP inhibition (CYP2C9)	% enzyme activity at 1 μM (HGK/MAP4K4)
COc1cc(-c2cncc(-c3ccc(N4CCN(C)CC4)cc3)c2C)cc(F)c1C(N)=O [Compound 26a, 2-Fluoro-6-methoxy-4-(4-methyl-5-(4-(4-methylpiperazin-1-yl)phenyl)pyridin-3-yl)benzamide]	97.22%	101%	91.48%	93.91%	108%	> 50 µM	22% and 21%
COc1cc(-c2cncc(-c3ccc(N4C[C@@H](C)N(C)[C@@H](C)C4)cc3)c2C)cc(F)c1C(N)=O [Compound 26c, 2-Fluoro-6-methoxy-4-(4-methyl-5-(4-((3R,5S)-3,4,5-trimethylpiperazin-1-yl)phenyl)pyridin-3-yl)benzamide]	95.67%	94.6%	90.22%	100.46%	104%	> 50 µM	30.6% and 28.4%
